Laboratory results from patent publication US20190336496A1, “SELECTIVE BCL-2 INHIBITORS IN COMBINATION WITH AN ANTI-PD-1 OR AN ANTI-PD-L1 ANTIBODY FOR THE TREATMENT OF CANCERS” (AbbVie Inc., priority 2018, published 2019).

How the values were obtained:
[1] = system: CD4 T-cells co-cultured with MoDCs; test: Mixed lymphocyte reaction (MLR) assay; assay type: cell-based, human; details: for CD3+ T cell numbers / production of IFNγ (secreted) / proportion of CD3+ T-cells that produce IFNγ: MLR, BCL-2 inhibitors at 1 μM
Procedure: Mixed Lymphocyte Reaction (MLR) assay was used to examine venetoclax effect on T-cell function in response to immune stimulation. Monocytic-derived dendritic cells (MoDCs) were generated from fresh human blood. PBMCs were isolated using a Ficoll gradient. The PBMCs were allowed to adhere for 2 hours. After 2 hours, cells in suspension were removed. Fresh AIM V™ medium (ThermoFisher cat. #12055091) supplemented with granulocyte-macrophage colony-stimulating factor (GM-CSF, 80 ng/mL) and IL-4 (50 ng/mL) was added to the culture. After 5 days, the MoDCs were stimulated with IL-1α and TNF-α (0.2 ng/mL each) for 48 hours to increase major histocompatibility complex class II molecules (MHCII) expression. These activated MoDCs were then co-cultured with CD4 T-cells (Biospecialty Corp.) at a ratio of 10:1 (T-cells:MoDCs) in a mixed lymphocyte reaction (MLR). The cells were treated with control IgG (Isotype) or anti-PD-1 antibody (nivolumab or ABBV-181 along with either dimethyl sulfoxide (DMSO) or BCL-2 inhibitors venetoclax (Compound (I)) or Compounds (II) or (III). Antibodies were added at 10 μg/mL and the compound concentrations of venetoclax were as indicated in FIG. 11. The MLR was cultured for 5 days, after which the cells were analyzed by flow cytometry using an LSRFortessa™ X-20 instrument (BD Biosciences) to determine cell number and functional cytokine (IFNγ) responses.

EMT6 tumors = test: EMT6 mouse mammary carcinoma syngeneic model; assay type: in vivo; details: for complete responses (CR): EMT6, groups of 10 mice
Procedure: All experiments were conducted in compliance with the National Institutes of Health Guide for Care and Use of Laboratory Animals guidelines in a facility accredited by the Association for the Assessment and Accreditation of Laboratory Animal Care (AAALAC). BALB/c, C57BL/6, CB6F1 (C57BL/6 bred with BALB/c) and SCID mice were obtained from Charles River (Wilmington, Mass.). SCID mice have severe combined immune deficiency (SCID) and are characterized by an absence of functional T- and B-cells.
EMT6, mouse mammary carcinoma and CT26, mouse colon carcinoma, cell lines were obtained from ATCC (Manassas, Va.). MC38, mouse colon carcinoma cell line was obtained from National Cancer Institute (NCI).
Compound (I),venetoclax, was formulated in 10% ethanol+30% PEG 400+60% Phosal® 50PG. Venetoclax was administered orally once a day for 14 days at 50 mg/kg/day.
1×10^5 CT26, EMT6 or MC38 cells were subcutaneously injected with Matrigel into the flanks of BALB/c, CB6F1 or C57BL/6 mice, respectively. Seven days later, mice were randomized to treatment groups of vehicle, venetoclax, anti-PD-1/PD-L1 or the combination of venetoclax and anti-PD-1/PD-L1. Tumor volume was determined via measurements of the length (L) and width (W) of the tumor with electronic calipers and the volume was calculated according to the following equation: V=L×W2/2 using Study Director Version 2.1.11 (Studylog Systems Inc., South San Francisco). Complete response (CR) was defined as reduction in tumor volume to ≤25 mm^3 over at least 3 successive measurements.

## Cn1ccc2cc(N(C(=O)c3cc(-c4cc5c(cc4C(=O)N4Cc6ccccc6C[C@H]4CN4CCOCC4)OCO5)n4c3CCCC4)c3ccc(O)cc3)ccc21 [Compound (II)]
[1]
  CD3+ T cell numbers: declined comparably
  production of IFNγ (secreted): not antagonized
  proportion of CD3+ T-cells that produce IFNγ: increase

## O=C(c1cc(-c2cc3c(cc2C(=O)N2Cc4ccccc4C[C@H]2CN2CCOCC2)OCO3)n2c1CCCC2)N(c1ccccc1)c1ccc(O)cc1 [Compound (III)]
[1]
  CD3+ T cell numbers: declined comparably
  production of IFNγ (secreted): not antagonized
  proportion of CD3+ T-cells that produce IFNγ: increase

## anti hu PD-L1 YW243.55.S70 [mu IgG2 a/k]: mouse anti-PD-L1 antibody, heavy chain SEQ ID NO: 5, light chain SEQ ID NO: 6
EMT6 tumors
  complete responses (CR): 3
EMT6 tumors; listed as anti-PD-L1 antibody
  complete responses (CR): 3/10
EMT6 tumors; EMT6 in CB6F1 mice, venetoclax 50 mg/kg/day orally 14 days, antibody 10 mg/kg IP every 4 days, 3 times, day 25
  tumor growth inhibition (TGI): 89%

## nivolumab: anti-PD-1 antibody, heavy chain SEQ ID NO: 9, light chain SEQ ID NO: 10
[1]; MLR 5 days, with isotype control or anti-PD-1 antibody
  proportion of CD4+ T-cells that produce IFNγ: increased
[1]; MLR cultured 5 days, antibodies at 10 μg/mL
  number of CD4+ T-cells: increased
